What all share (format): in vitro ADME
For one assay, the target named is T1, CYP2C8 (Homo sapiens, UniProt P10632).
T1 construct: purchased XenoTech
T1 sequence (P10632 1-490): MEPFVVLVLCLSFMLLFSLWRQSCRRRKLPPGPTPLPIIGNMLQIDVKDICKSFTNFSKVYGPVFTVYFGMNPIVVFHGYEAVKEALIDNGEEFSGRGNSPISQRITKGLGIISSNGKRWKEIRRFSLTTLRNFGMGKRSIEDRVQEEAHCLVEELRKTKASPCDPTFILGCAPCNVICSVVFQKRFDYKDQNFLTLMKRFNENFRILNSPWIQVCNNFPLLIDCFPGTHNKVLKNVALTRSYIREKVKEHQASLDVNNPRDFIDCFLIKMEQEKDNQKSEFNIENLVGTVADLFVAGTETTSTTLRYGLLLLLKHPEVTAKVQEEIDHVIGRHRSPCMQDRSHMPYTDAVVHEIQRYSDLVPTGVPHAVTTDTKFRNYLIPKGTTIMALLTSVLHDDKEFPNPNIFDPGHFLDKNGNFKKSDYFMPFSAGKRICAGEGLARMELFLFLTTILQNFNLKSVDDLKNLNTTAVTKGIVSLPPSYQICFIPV
The assay can be described thus: Inhibition of sepin-1 on CYP2C8. Here is the method: (§1) Incubations were performed in 1× PBS (pH 7.4), containing 0, 0.156, 0.312, 0.625, 1.25, 2.5, 5, 10, 20, or 40 μM sepin-1, 2 pmol of each cDNA-expressed P450 enzymes, and corresponding substrates: CYP1A2 (phenacetin, 40 μM, 20 min incubation), 2B6 (efavirenz, 20 μM, 30 min), 2C8 (paclitaxel, 10 μM, 30 min), 2C9 (diclofenac, 5 μM, 15 min), 2C19 [(S)-mephenytoin, 40 μM, 20 min], 2D6 (dextromethorphan, 5 μM, 15 min), and CYP3A4 (midazolam, 3 μM, 10 min) in a final volume of 190 μl. After 5 min of pre-incubation at 37°C, the reaction was initiated by adding 10 μl of 20 mM NADPH (final concentration 1.0 mM) and continued for a specific time as presented above with gentle shaking. Incubations without sepin-1 were used as controls. Reactions were terminated by the addition of 200 μl of ice-cold methanol, vortexing for 30 s, and centrifuging at 15,000 × g for 15 min. Each supernatant was transferred to an auto sampler vial and 5.0 μl was injected on to UHPLC coupled with a QQQMS system for the specific metabolite analysis. A MRM method was used. Incubations were conducted in duplicate. Positive controls were performed by using a known specific inhibitor for each of the isoform assays (Supplementary Table S1). […]

A further assay concerns the target T2, CYP2C9 (Homo sapiens, UniProt P11712).
T2 construct: purchased XenoTech
The assay is described as follows: Inhibition of sepin-1 on CYP2C9. The method, then: as §1

The next assay deals with T3, CYP2C19 (Homo sapiens, UniProt P33261).
T3 construct: purchased XenoTech
T3 sequence (P33261 whole entry): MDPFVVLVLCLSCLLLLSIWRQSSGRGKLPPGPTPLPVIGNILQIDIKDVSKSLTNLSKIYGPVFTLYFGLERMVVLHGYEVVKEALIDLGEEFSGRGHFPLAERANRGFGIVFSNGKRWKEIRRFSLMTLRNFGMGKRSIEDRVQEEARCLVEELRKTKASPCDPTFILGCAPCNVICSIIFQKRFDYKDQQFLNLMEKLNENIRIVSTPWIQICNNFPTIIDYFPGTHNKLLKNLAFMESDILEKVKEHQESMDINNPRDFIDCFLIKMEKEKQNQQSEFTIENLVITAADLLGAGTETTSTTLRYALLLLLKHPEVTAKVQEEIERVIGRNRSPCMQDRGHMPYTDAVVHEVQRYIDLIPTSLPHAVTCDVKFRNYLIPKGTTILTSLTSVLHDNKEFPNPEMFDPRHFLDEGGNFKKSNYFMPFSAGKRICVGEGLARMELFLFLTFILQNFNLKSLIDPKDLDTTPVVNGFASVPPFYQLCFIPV
The assay is described as follows: Inhibition of sepin-1 on CYP2C19. Here is the method: as §1

Another assay deals with T4, CYP3A4 (Homo sapiens, UniProt P08684).
T4 construct: purchased XenoTech
T4 sequence (P08684 whole entry): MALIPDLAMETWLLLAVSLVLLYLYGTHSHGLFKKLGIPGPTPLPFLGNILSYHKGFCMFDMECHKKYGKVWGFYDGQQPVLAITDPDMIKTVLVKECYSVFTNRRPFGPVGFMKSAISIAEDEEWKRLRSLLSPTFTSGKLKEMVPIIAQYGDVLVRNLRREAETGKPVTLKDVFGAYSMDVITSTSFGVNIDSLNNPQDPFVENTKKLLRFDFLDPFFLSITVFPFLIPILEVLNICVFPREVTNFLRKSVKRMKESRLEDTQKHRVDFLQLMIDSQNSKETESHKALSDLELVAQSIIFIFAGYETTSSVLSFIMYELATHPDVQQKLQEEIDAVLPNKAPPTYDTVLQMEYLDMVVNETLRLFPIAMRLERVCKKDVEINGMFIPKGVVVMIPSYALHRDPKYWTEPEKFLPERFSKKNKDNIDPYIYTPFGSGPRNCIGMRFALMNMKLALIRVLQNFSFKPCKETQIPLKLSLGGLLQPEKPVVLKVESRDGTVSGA
The assay can be described thus: Inhibition of sepin-1 on CYP3A4. The method, then: as §1

In the next assay the target is T5, CYP2B6 (Homo sapiens, UniProt P20813).
T5 construct: purchased XenoTech
T5 sequence (P20813 1-491): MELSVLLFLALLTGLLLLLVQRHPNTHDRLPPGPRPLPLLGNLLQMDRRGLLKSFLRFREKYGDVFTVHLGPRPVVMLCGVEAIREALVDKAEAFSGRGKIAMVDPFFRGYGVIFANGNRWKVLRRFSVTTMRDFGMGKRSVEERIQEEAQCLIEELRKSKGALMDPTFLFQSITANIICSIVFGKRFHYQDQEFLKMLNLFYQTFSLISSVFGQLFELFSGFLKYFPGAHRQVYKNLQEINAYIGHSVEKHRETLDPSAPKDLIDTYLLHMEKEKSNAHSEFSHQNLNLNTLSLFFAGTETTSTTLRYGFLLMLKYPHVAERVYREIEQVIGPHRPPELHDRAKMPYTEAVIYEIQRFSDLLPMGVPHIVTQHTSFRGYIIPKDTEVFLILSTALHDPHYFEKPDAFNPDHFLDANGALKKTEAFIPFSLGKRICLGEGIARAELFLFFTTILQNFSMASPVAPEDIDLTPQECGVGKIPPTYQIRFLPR
The assay is described as follows: Inhibition of sepin-1 on CYP2B6. Here is the method: as §1

This is an account of results in paper PMC5949348, “The Metabolism of Separase Inhibitor Sepin-1 in Human, Mouse, and Rat Liver Microsomes” (Frontiers in Pharmacology, 2018).

Several values for one entry are separate records, joined by “and”; a condition that tells them apart may be missing. Identical values can stand only once. Like-named read-outs stand apart in the source and are kept apart here.

T2 sequence (P11712 whole entry): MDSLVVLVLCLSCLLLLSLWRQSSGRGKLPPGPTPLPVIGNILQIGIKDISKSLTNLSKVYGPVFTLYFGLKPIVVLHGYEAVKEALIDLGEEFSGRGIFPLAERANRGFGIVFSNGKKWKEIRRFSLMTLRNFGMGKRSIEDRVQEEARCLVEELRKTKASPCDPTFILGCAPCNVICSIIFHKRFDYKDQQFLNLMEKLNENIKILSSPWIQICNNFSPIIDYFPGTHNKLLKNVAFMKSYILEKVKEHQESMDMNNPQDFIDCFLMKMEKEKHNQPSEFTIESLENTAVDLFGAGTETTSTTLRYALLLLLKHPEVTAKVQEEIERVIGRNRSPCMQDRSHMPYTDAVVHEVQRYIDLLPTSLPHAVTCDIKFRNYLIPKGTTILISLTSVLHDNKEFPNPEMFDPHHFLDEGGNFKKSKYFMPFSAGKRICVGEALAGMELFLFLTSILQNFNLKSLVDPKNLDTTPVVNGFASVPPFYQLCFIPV

Consider `CC1(C)[N+]([O-])=c2ccc([N+](=O)[O-])cc2=[N+]1[O-]` [Sepin-1, 2,2-dimethyl-5-nitro-2H-benzimidazole-1,3-dioxide], for which, on CYP2C8 (FDA classification bands), the “Inhibition potency class on CYP2C8” value is on record as “weak inhibition”. Further, the IC50 at CYP2C8 (substrate paclitaxel 10 μM, 30 min, metabolite 6-O-paclitaxel, co-incubation) is > 10 µM and 17.8 µM; at CYP2C9 (substrate diclofenac 5 μM, 15 min, metabolite 4-O-diclofenac, co-incubation), > 10 µM and 21.3 µM; at CYP2C19 (FDA classification bands, read-out: Inhibition potency class on CYP2C19), 1 to 10 µM; on CYP2C19 (substrate (S)-mephenytoin 40 μM, 20 min, metabolite 4-O-mephenytoin, co-incubation, read-out: IC50 on CYP2C19) it was < 10 µM and 8.9 µM; at CYP3A4 (FDA classification bands, read-out: Inhibition potency class on CYP3A4), 1 to 10 µM; at CYP3A4 (substrate midazolam 3 μM, 10 min, metabolite 1-O-midazolam, co-incubation, read-out: IC50 on CYP3A4) it was < 10 µM and 8.7 µM. Also, the IC50 on CYP2B6 (substrate efavirenz 20 μM, 30 min, metabolite 8-O-efavirenz, co-incubation) was > 10 µM and 14.5 µM. For the same molecule, the “Inhibition potency class on CYP2C9” value on CYP2C9 (FDA classification bands) is “weak inhibition”. Further, the “Inhibition potency class on CYP2B6” value on CYP2B6 (FDA classification bands) is “weak inhibition”.
